Laboratory results published in patent US20220357332A1, “TRIPHENYLENE DERIVATIVES FOR USE IN IMAGING BIOLOGICAL TISSUE OR FLUID” (CHROMATWIST LIMITED, priority 2019, published 2022).

How the values were obtained:
[1] = system: human liver; details: 45 min, 1 μg/ml
Procedure: All fluorophores were testing using donated human tissue which had been previously rejected for transplantation. All reagents were diluted in pre-warmed Dulbecos Modified Eagles Medium (DMEM) or CO2-independent media (both Invitrogen) to working concentrations and then perfused into pieces of liver for 45 min. Membrane and nuclear dyes were used simultaneously to visualise other cellular structures within the liver. Tissues were then imaged using multiphoton microscopy (825 nm). All fluorophores were used at 1 μg/ml (giving 0.1% of vehicle, being DMSO or THF). Testing of TpOx-2-Nap (green fluorophore) was done using DMSO as a solvent. […] was used for comparison, having been perfused through a separate piece of tissue from the same donor.

[2] = Solubility (statements in words); format: physicochemical; details: DMSO as a solvent, diluted in medium to 1 μg/ml
[3] = Luminescent data (absorption, emission, quantum yield, brightness) in solvents; format: physicochemical
Excerpt: Referring now to Table 1, there is shown luminescent data for Compounds 1 to 6.

[4] = Luminescence data for pairs of compounds absorbing at the same wavelength and emitting at different wavelengths; format: physicochemical
Excerpt: Referring now to Tables 2 to 4, there is provided luminescence data for pairs of compounds which are capable of absorbing at the same wavelength and emitting at different wavelengths.

[5] = system: Huh-7 cells; details: 1 hr, Huh-7 cells labelled with CMFDA
Excerpt: To test the relative toxicity of tetrahydrofuran (THF) for liver cells, Huh-7 cells (hepatoma cell line used for a model of hepatocytes) were labelled with CMFDA (CellTracker Green, in DMSO, Invitrogen) and then treated with half log concentrations of THF (0.1%, 0.3%, 1%, 3%) for 1 hr. Cells were then imaged live using a Zeiss primovert fluorescence microscope.

[6] = Acetonitrile (ϵr 37.5, viscosity 0.38 cP)
[7] = Ethyl acetate (ϵr 6.0, viscosity 0.45 cP)
[8] = Octan-1-ol (ϵr 10.3, viscosity 7.36 cP)

SMILES: CCCCCOc1cc2c3cc(OCCCCC)c(OCCCCC)cc3c3c(cc(OCCCCC)c4oc(-c5ccc6ccccc6c5)nc43)c2cc1OCCCCC [Compound 3, 8-(naphthalen-2-yl)-2,3,6,11,12-pentakis(pentyloxy)triphenyleno[1,2-d]oxazole]
- Uptake by hepatocytes [1]: Diffuse green fluorescence (12) was observed within the cytoplasm of the hepatocytes
- Solubility with DMSO as solvent [2]: limited solubility
- Absorption λmax [3, 6]: 273 nm
- Brightness [3, 6]: 44 ± 4 M⁻¹ cm⁻¹
- Emission λmax [3, 6]: 524 nm
- pSS [3, 6]: 17600 cm^−1
- Φ [3, 6]: 0.51 ± 0.05
- Absorption λmax [3, 7]: 272 nm
- Brightness [3, 7]: 92 ± 9 M⁻¹ cm⁻¹
- Emission λmax [3, 7]: 494 nm
- pSS [3, 7]: 16500 cm^−1
- Φ [3, 7]: 0.55 ± 0.05
- Absorption λmax [3, 8]: 272 nm
- Brightness [3, 8]: 91 ± 9 M⁻¹ cm⁻¹
- Emission λmax [3, 8]: 497 nm
- pSS [3, 8]: 16600 cm^−1
- Φ [3, 8]: 0.71 ± 0.07
- QY [4]: 0.55
- pSS (cm^−1) [4]: 16500 cm^−1
- pSS (nm) [4]: 222 nm
- Absorption % Abs at 355 nm ([4]; 355 nm): 17%
- Absorption % Abs at 405 nm ([4]; 405 nm): 7%
- ε × 10^3 (M^−1 cm^−1) at 355 nm ([4]; at 355 nm, solvent not given): 29 × 10^3 M^−1 cm^−1
- ε × 10^3 (M^−1 cm^−1) at 405 nm ([4]; at 405 nm, solvent not given): 13 × 10^3 M^−1 cm^−1
- ε × 10^3 (M^−1 cm^−1) at λMax ([4]; at λMax, solvent not given): 164 × 10^3 M^−1 cm^−1
- Absorption λMax ([4]; solvent not given): 272 nm
- Emission λMax ([4]; solvent not given): 494 nm

SMILES: C1CCOC1 [THF, tetrahydrofuran]
- Toxicity for liver cells (cell culture compared to the reference) ([5]; 0.1% and 0.3% THF): no differences in the cell culture compared to the reference
- Toxicity for liver cells (dead cells) ([5]; 1% and 3% THF): increasing number of dead cells
